Values after ≈ are worked out from the molar mass of the structure shown. Where two headings read alike, the source gives them in different places.
Experiments:
Candida albicans CBS 562 = type: cell-based; details: for MIC: read-out: MIC (column A)
Candida albicans 607 = type: cell-based
Candida albicans 615 = type: cell-based
[1] = system: Candida glabrata 4475 (resistant to azoles); type: cell-based; details: Nakaseomyces glabratus, 24 h, read-out: MIC
Candida glabrata 4787 = type: cell-based
Candida glabrata 4681 = type: cell-based; details: footnote c
Rhizopus oryzae = test: microbe, parasite or virus in culture; type: cell-based; details: Rhizopus arrhizus
in vivo = details: male, ICR, mouse, iv
[2] = long chain lengths
Sprague-Dawley rats = test: PET imaging, bio-distribution; type: in vivo; details: normal female Sprague-Dawley rats, 50 μCi via tail vein, imaged after 30 minutes
Protocol: The exemplary [^18F] labeled amine fluorocyanoborane according to the present embodiments, Compound [^18F]K-I4, was injected into normal rats, and was monitored by a PET/CT Philips camera.
Four normal, female Sprague-Dawley rats (250-300 grams each) were injected via the tail vein with 50 μCi of Compound [^18F]K-I4 solution in saline (4.5 mCi/ml). Fifteen minutes after injection, the rats were anesthetized with 45 mg Ketamine and 24 mg Acepromazin, and after 30 minutes each rat was imaged for 15 minutes.

[3] = Stability of the radiolabeled product by TLC; type: physicochemical; details: saline solution, after 10 hours, silica gel 60 F254
Protocol: The final product was tested on TLC (silica gel 60 F254) after 10 hours and found stable.

[4] = CBS562, Candida albicans CBS 562, MIC-0, 24 h, 35° C.
[5] = Candida albicans 607, MIC-0, 24 h, 35° C., read-out: MIC
[6] = Candida albicans 615, MIC-0, 24 h, 35° C., read-out: MIC
[7] = Candida glabrata 4475 (resistant to azoles), footnote c
[8] = Nakaseomyces glabratus, Candida glabrata 4787, read-out: MIC
[9] = Candida albicans, 607, 24 h, read-out: MIC
[10] = Candida albicans, 615, 24 h, read-out: MIC

`C[N+](C)(C)[BH-](F)C#N` (stereo not drawn) showed a melting point of 53 °C.
Compound `C[N+](C)(C)[B-](F)(F)C#N` has a melting point of 48 °C.
In the case of `COC(=O)[B-](F)(F)[N+](C)(C)C`, the melting point is reported as 66 °C.
In the case of `C[C@@H]1[C@H](O)[C@@H](C)/C=C/C=C/C=C/C=C/C=C/C=C/C=C/[C@H](O[C@@H]2O[C@H](C)[C@@H](O)[C@H](N)[C@@H]2O)C[C@@H]2O[C@](O)(C[C@@H](O)C[C@@H](O)[C@H](O)CC[C@@H](O)C[C@@H](O)CC(=O)O[C@H]1C)C[C@H](O)[C@H]2C(=O)O` [CAF1, Amphotericin B, reference compound], the “MIC (column A)” value (Candida albicans CBS 562; Candida albicans CBS 562, MIC-0, 24 h, 35° C.) is reported as 0.54 µM (≈ 0.499 µg/mL), the “MIC” value (Candida albicans 607; Candida albicans 607, MIC-0, 24 h, 35° C.) is reported as 0.27 µM (≈ 0.25 µg/mL) and the “MIC” value (Candida albicans 615; Candida albicans 615, MIC-0, 24 h, 35° C.) is reported as 0.27 µM (≈ 0.25 µg/mL).
For `C[N+](C)(C)[B-](Br)(Br)C#N` [K-E, trimethyl-amine cyanodibromoborane], the MIC (Candida albicans CBS 562; [4]) was 1970 µM (≈ 504 µg/mL), the MIC (Candida albicans 607; [5]) was greater than 1970 µM and the MIC (Candida albicans 615; [6]) was greater than 1970 µM. For the same compound, the MIC [1, 7] was greater than 0.5 µg/mL.
For `CCCCCCCCCCC[N+](C)(C)[BH-](Br)C#N` (stereo not drawn) [K-I1, dimethyl-undecyl-amine cyanobromoborane], the MIC (Candida albicans CBS 562; [4]) was 49 µM (≈ 15.5 µg/mL), the MIC (Candida glabrata 4787; [8]) was 15.6 µM (≈ 4.95 µg/mL) and the “MIC” value (Candida glabrata 4681) was 7.8^c μg per liter. The MIC (Rhizopus oryzae) was 63 µg/mL (≈ 199 µM), the MIC (Candida albicans 607; [5]) was 49 µM (≈ 15.5 µg/mL) and the MIC (Candida albicans 615; [6]) was 49 µM (≈ 15.5 µg/mL). For the same compound, the MIC [1, 7] was 0.0078 µg/mL (≈ 0.0246 µM).
`CCCCCCCCCCC[N+](C)(C)[B-](Br)(Br)C#N` [K-I2, dimethyl-undecyl-amine cyanodibromoborane] gave an MIC (Candida albicans CBS 562; [4]) of 39 µM (≈ 15.4 µg/mL), an MTD (in vivo) of 73.1 µmol/kg and an MIC (Candida glabrata 4787; [8]) of 32 µM (≈ 12.7 µg/mL). For the same compound, the “MIC” value (Candida glabrata 4681) was 32^c μg per liter, the MIC (Candida albicans 607; [5]) was 39 µM (≈ 15.4 µg/mL) and the MIC (Candida albicans 615; [6]) was 39 µM (≈ 15.4 µg/mL).
For `CCCCCCCCCCC[N+](C)(C)[B-](F)(Br)C#N` (stereo not drawn) [K-I3, dimethyl-undecyl-amine cyanofluorobromoborane], the MIC (Candida albicans CBS 562; [4]) was 7.8 µM (≈ 2.61 µg/mL) and the MIC (Rhizopus oryzae) was 63 µg/mL (≈ 188 µM).
`CCCCCCCCCCC[N+](C)(C)[BH-](F)C#N` (stereo not drawn) [K-I4, dimethyl-undecyl-amine cyanofluoroborane] gave an MIC (Candida albicans CBS 562; [4]) of 64 µM (≈ 16.4 µg/mL), an MIC (Candida albicans 607; [5]) of 64 µM (≈ 16.4 µg/mL) and an MIC (Candida albicans 615; [6]) of 64 µM (≈ 16.4 µg/mL).
In the case of `C[N+](C)(CCCCCCCCCC[N+](C)(C)[BH-](Br)C#N)[BH-](Br)C#N` (stereo not drawn) [K-J1, N,N,N′,N′-tetramethyldecane-1,10-diamine bis-cyanobromoborane], the MIC (Candida albicans CBS 562; [4]) is reported as 140 µM (≈ 64.9 µg/mL), the MIC (Candida glabrata 4787; [8]) is reported as 65 µM (≈ 30.2 µg/mL) and the “MIC” value (Candida glabrata 4681) is reported as 65^c μg per liter. It also gave an MIC (Candida albicans 607; [5]) of 140 µM (≈ 64.9 µg/mL), an MIC (Candida albicans 615; [6]) of 140 µM (≈ 64.9 µg/mL) and an MIC [1, 7] of 0.065 µg/mL (≈ 0.14 µM).
For `C[N+](C)(CCCCCCCCCC[N+](C)(C)[B-](Br)(Br)C#N)[B-](Br)(Br)C#N` [K-J2, N,N,N′,N′-tetramethyldecane-1,10-diamine bis-cyanodibromoborane], the MIC (Candida albicans CBS 562; Candida albicans, CBS562, 24 h) was 104 µM (≈ 64.7 µg/mL), the MIC (Candida glabrata 4787; Nakaseomyces glabratus, 4787, read-out: MIC) was 65 µM (≈ 40.4 µg/mL) and the “MIC” value (Candida glabrata 4681) was 65^c μg per liter. It also gave an MIC (Candida albicans 607; [9]) of 104 µM (≈ 64.7 µg/mL), an MIC (Candida albicans 615; [10]) of 104 µM (≈ 64.7 µg/mL) and an MIC [1] of 0.065 µg/mL (≈ 0.105 µM).
With `C[N+](C)([BH2-]C(=O)O)CCCCCCCCCC[N+](C)(C)[BH2-]C(=O)O` [K-J3, N,N,N′,N′-tetramethyldecane-1,10-diamine bis-carboxyborane] the MIC (Candida albicans CBS 562; [4]) was 188 µM (≈ 64.7 µg/mL), the MIC (Candida glabrata 4787; [8]) was 65 µM (≈ 22.4 µg/mL) and the “MIC” value (Candida glabrata 4681) was 65^c μg per liter. For the same compound, the MIC (Candida albicans 607; [5]) was 188 µM (≈ 64.7 µg/mL), the MIC (Candida albicans 615; [6]) was 907 µM (≈ 312 µg/mL) and the MIC [1, 7] was 0.0312 µg/mL (≈ 0.0907 µM).
Compound `C[N+](C)([BH2-]C#N)CCCCCCCCCC[N+](C)(C)[BH2-]C#N` [K-J, N,N,N′,N′-tetramethyldecane-1,10-diamine bis-cyanoborane] has an MIC (Candida albicans CBS 562; Candida albicans, CBS562, 24 h) of 408 µM (≈ 125 µg/mL), an MIC (Candida albicans 607; [9]) of 408 µM (≈ 125 µg/mL) and an MIC (Candida albicans 615; [10]) of 817 µM (≈ 250 µg/mL). For the same compound, the MIC [1] was 0.065 µg/mL (≈ 0.212 µM).
For `CCCCCCC(C)(O)C[N+](C)(C)[BH2-]C#N` (stereo not drawn) [K-O, 1-dimethylamino-2-methyl-octan-2-ol cyanoborane], the MIC (Candida albicans CBS 562; [4]) was 2210 µM (≈ 500 µg/mL), the MIC (Candida albicans 607; [5]) was 1100 µM (≈ 249 µg/mL) and the MIC (Candida albicans 615; [6]) was 1100 µM (≈ 249 µg/mL). It also gave an MIC [1, 7] greater than 0.25 µg/mL.
In the case of `CCCCCCCCCCCCCCCCC[N+](C)(C)[BH2-]C#N` [K-S, heptadecyl-dimethyl-amine cyanoborane], the solubility [2] is reported as “solubility problems”.
In the case of `CCCCCCCCCCC[N+](C)(C)[BH-]([18F])C#N` (stereo not drawn) [[^18F]K-I4, [^18F]dimethyl-undecyl-amine cyanofluoroborane], the “bio-distribution by PET/CT” value (Sprague-Dawley rats) is reported as “uptake in the rat's bones” and the “stability on TLC” value [3] is reported as “stable”.
